1 compound from patent publication US20030013660A1, “Dioxolane analogs for improved inter-cellular delivery” (Shire BioChem Inc., priority 2000, published 2003) can be followed below.

The target of data set [1] is T1, hENT2 (Homo sapiens, UniProt Q14542).
T1 sequence (Q14542 1-456): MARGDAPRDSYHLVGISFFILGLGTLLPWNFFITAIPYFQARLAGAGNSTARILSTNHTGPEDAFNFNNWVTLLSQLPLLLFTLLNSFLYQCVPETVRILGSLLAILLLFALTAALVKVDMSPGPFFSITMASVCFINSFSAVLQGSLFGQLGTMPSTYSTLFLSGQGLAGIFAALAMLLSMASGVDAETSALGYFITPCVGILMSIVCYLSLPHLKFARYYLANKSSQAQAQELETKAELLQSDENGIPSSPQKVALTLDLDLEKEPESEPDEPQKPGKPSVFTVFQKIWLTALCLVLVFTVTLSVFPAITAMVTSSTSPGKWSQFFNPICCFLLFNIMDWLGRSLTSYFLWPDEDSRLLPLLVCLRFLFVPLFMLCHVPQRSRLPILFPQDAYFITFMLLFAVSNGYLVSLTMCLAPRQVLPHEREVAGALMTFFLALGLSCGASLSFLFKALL
Procedure: B.Uptake of [^3H]troxacitabine either in the absence ( ? ) or presence of 100 nM NBMPR (▴), 100 μM dilazep (▾), 1 mM non-radioactive troxacitabine (♦) or 20 μM dipyridamole (●), using an expanded scale of 0-15 pmol/10^6 cells. Each data point represents the mean (±standard deviation) of three determinations.
Briefly, for adherent cells, uptake assays are conducted at room temperature under zero-trans conditions in either sodium-containing transport buffer (20 mM Tris/HCl, 3 mM K2HPO4, 1 mM MgCl2.6H2O, 2 mM CaCl2, 5 mM glucose and 130 mM NaCl, pH 7.4, 300±15 mOsm) or sodium-free transport buffer with NaCl replaced by N-methyl-D-glucamine. […] After the plates are drained, the cells are lysed with 5% Triton X-100 and mixed with Ecolite scintillation fluid to measure the cell-associated radioactivity (Beckman LS 6500 scintillation counter; Beckman-Coulter Canada, Mississauga, ON). Uptake at the zero time-point is determined by treating cells for 10 min at 4° C. with transport buffer containing 100 μM dilazep, then adding the radioactive nucleoside for 2 s before reaction termination as described above. […] Uptake at the zero time-point is determined by adding cells to cold transport buffer containing radiolabeled permeant and dilazep, and immediate centrifugation. Cell pellets are lysed and cell-associated radioactivity measured. […]

Data set [2] addresses T2, hCNT3 (Homo sapiens, UniProt Q9HAS3).
T2 sequence (Q9HAS3 1-691): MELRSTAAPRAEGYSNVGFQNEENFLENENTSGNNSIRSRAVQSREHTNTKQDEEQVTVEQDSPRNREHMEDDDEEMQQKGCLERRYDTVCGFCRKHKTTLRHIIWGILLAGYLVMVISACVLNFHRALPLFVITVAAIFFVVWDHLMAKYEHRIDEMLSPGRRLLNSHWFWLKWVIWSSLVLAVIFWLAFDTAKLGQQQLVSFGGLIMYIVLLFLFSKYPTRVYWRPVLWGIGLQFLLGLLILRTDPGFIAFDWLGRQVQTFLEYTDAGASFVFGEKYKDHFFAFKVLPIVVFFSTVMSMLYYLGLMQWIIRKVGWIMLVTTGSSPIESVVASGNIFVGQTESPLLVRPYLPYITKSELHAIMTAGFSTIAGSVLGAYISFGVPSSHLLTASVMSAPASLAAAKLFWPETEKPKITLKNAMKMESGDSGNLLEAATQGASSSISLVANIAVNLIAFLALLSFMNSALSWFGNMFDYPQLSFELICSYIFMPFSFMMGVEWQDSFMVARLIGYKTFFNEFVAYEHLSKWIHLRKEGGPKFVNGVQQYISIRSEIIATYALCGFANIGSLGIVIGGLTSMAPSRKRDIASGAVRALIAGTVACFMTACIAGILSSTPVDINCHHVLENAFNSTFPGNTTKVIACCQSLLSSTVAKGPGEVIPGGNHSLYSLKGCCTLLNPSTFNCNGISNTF
To be noted: 100-fold non-radioactive troxacitabine, differentiated HL-60.
Source text: The ability of a high concentration (100-fold) of non-radioactive troxacitabine to inhibit the uptake of ^3H]uridine by hCNT3 was examined in a differentiated HL-60 model system [Ritzel et al. (2000), supra].

Data set [3] addresses T3, hENT1 (Homo sapiens, UniProt Q99808).
T3 sequence (Q99808 1-456): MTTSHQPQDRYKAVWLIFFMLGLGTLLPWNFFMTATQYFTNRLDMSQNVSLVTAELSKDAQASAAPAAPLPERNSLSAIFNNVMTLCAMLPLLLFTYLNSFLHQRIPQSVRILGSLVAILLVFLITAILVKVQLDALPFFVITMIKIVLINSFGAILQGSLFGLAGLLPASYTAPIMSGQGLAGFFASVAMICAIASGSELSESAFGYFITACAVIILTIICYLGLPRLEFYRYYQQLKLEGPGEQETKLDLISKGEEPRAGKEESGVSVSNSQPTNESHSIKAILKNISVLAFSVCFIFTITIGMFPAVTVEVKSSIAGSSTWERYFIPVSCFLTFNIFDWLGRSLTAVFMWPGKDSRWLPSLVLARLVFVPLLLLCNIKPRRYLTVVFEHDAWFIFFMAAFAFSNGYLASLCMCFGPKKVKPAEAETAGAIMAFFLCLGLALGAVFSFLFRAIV
Kind of data set: Cellular uptake assay of [3H]nucleoside in CEM cells (es activity). It counts as in vitro ADME. Also noted: endogenous in cells. To be noted: compared with uridine. The protocol:
(§1) FIG. 1 Comparative uptake of 30 μM [^3H]-troxacitabine in CEM (Panel A) and CEM/ARAC8C (Panel B) cells. [^3H]-Uridine uptake in either the presence or absence of the hENT1 inhibitor, NBMPR or 5 mM non-radioactive uridine was included for comparison as a control substrate.
(§2) Cancer Res., 56: 4187-4191.
The transport of [^3H]uridine was inhibited in the presence either of the hENT1 inhibitor, NBMPR, or excess non-radioactive uridine.

For data set [4], the target named is T3, hENT1. Kind of data set: Cellular uptake assay of [3H]nucleoside in DU145 cells, with or without NBMPR or excess non-radioactive troxacitabine. In kind it is in vitro ADME. Also noted: The presence of functional es-mediated transport (hENT1) in DU145 cells; endogenous in cells; host or cells: DU145 cells. The protocol: as §2
This experiment is designed to show whether [^3H]L-troxacitabine (10 μM) is taken up by DU145 cells and if the rate of uptake is affected by the addition of high concentrations (1 mM) of non-radioactive troxacitabine.

The subject of data set [5] is CEM/ARAC8C cells. Kind of data set: Cellular uptake assay of [3H]nucleoside in nucleoside-transport deficient CEM/ARAC8C cells. It counts as in vitro ADME. The protocol: as §1
The test system of data set [6] is CEM/ARAC8C cells. Kind of data set: CellTiter 96 cell proliferation assay (chemosensitivity), 48 h. In kind it is cell-based. The settings on record: read-out: EC50 (50% of the dose response curve); CEM/ARAC8C cells, 48 h exposure. The protocol:
(§3) The chemosensitivity of suspension cells lines (e.g., CEM or CEM-derivatives) is assessed using the CellTiter 96 ? proliferation assay. […] Adherent cell lines (e.g., DU145 or DU145^R) are seeded (^˜10^5 cells) in triplicate dishes, 24 h before drug exposure. Growth inhibition is determined by trypsinization and counting cells electronically.

For data set [7], the system named is CEM cells. Described as above. It counts as cell-based. How it is done: as §3
For data set [8], the system named is CEM/dCK cells. The data set is described as above. The settings on record: read-out: EC50 (50% of the dose response curve), 48 h exposure. In kind it is cell-based. How it is done:
as §3

As for `Nc1ccn([C@@H]2CO[C@H](CO)O2)c(=O)n1` [Troxacitabine, troxacitabine], the “inhibition of uptake by NBMPR, dilazep, dipyridamole or excess non-radioactive troxacitabine” value in data set [1] is reported as “no substantial inhibition”. Besides, in data set [2], the “effect on [3H]uridine uptake by hCNT3” value is on record as “no effect on uridine uptake”. The “uptake of [3H]nucleoside over the 6-min time course” value in data set [3] and in data set [5] was “taken up to a lesser degree” throughout. Further, in data set [4], the “effect of NBMPR on uptake” value is “not affected”. In data set [4], the “level of [3H] uptake” value is on record as “low levels”. Besides, the “effect of non-radioactive troxacitabine (1 mM) on uptake” value in data set [4] (10 μM [3H]L-troxacitabine) was “no significant effect”. Further, in data set [4] (10 μM, short (0-30s) and prolonged exposures (0-4 h)), the rate of uptake result is listed as “very slow”. Further, the EC50 in data set [6] is 1.18 µM; in data set [7] (Homo sapiens, CCRF-CEM, read-out: EC50 (50% of the dose response curve), CEM cells, 48 h exposure), 0.16 µM; in data set [8] it was above 100 µM. The “effect of the es transport inhibitor NBMPR on resistance of CEM cells” value in data set [7] (presence of NBMPR) is recorded as “not”.

Usually EC50 stands for the midpoint of the concentration-response curve.
